Measured values taken from PubChem BioAssay AID248 (DTP/NCI, 2004).
Several values for one entry are separate records, joined by “and”; a condition that tells them apart may be missing. Equal values may be shown once. Toxic doses and inconclusive results are not listed. Rule as the data show it: active = T/C of 150% or more; inactive = T/C below 125%.

System: L1210 leukemia ip in BDF1 mice, survival T/C
Test: NCI In Vivo Anticancer Drug Screen. Data for tumor model L1210 Leukemia (intraperitoneal) in B6D2F1 (BDF1) mice
Conditions: endpoint: mean survival time, higher = longer survival
Procedure, shortened: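 Transplantable tumor model; survival measured in treated vs vehicle control mice. Value = treated/control.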

[1] = dose: 100.0 mg/kg/injection, schedule: Q01DX001 (ip), vehicle: saline
[2] = dose: 200.0 mg/kg/injection, schedule: Q01DX001 (ip), vehicle: saline
[3] = dose: 100.0 mg/kg/injection, schedule: Q04DX003 (ip), vehicle: saline with Tween-80
[4] = dose: 200.0 mg/kg/injection, schedule: Q04DX003 (ip), vehicle: saline with Tween-80
[5] = dose: 75.0 mg/kg/injection, schedule: Q01DX001 (ip), vehicle: other
[6] = dose: 300.0 mg/kg/injection, schedule: Q01DX001 (ip), vehicle: other
[7] = dose: 100.0 mg/kg/injection, schedule: Q04DX003 (ip), vehicle: Klucel (hydroxypropylcellulose) (HPC)
[8] = dose: 200.0 mg/kg/injection, schedule: Q04DX003 (ip), vehicle: Klucel (hydroxypropylcellulose) (HPC)
[9] = dose: 400.0 mg/kg/injection, schedule: Q04DX003 (ip), vehicle: Klucel (hydroxypropylcellulose) (HPC)
[10] = dose: 400.0 mg/kg/injection, schedule: Q04DX003 (ip), vehicle: saline with Tween-80
[11] = dose: 50.0 mg/kg/injection, schedule: Q01DX005 (ip), vehicle: water
[12] = dose: 100.0 mg/kg/injection, schedule: Q01DX005 (ip), vehicle: water
[13] = dose: 200.0 mg/kg/injection, schedule: Q01DX005 (ip), vehicle: water
[14] = dose: 400.0 mg/kg/injection, schedule: Q01DX005 (ip), vehicle: water
[15] = dose: 50.0 mg/kg/injection, schedule: Q04DX003 (ip), vehicle: saline with Tween-80

Measured: T/C

O=S(=O)(O)C(O)c1ccccc1O (configuration not stated)
inactive: [1] 100 % of control | [2] 103 % of control | dose: 400.0 mg/kg/injection, schedule: Q01DX001 (ip), vehicle: saline 102 % of control

C=CCOc1ccc(Cl)cc1
inactive: [3] 90 % of control | [4] 94 % of control

O=[N+]([O-])c1cc(/C=N/N=C2c3ccccc3-c3ccccc32)ccc1Cl
inactive: [5] 86 % of control | [6] 91 % of control

C/C(=C\C(=O)/C=C(\C)NCc1ccccc1)NCc1ccccc1
inactive: [7] 98 % of control | [8] 100 % of control | [9] 93 % of control

NC(=O)NC1CCCCCC1
inactive: [3] 94 % of control | [4] 91 % of control | [10] 91 % of control

CCCCCCCC(=O)c1ccc(O)cc1
inactive: [3] 109 % of control | [4] 100 % of control | [10] 103 % of control

Cc1ccc(NC(=O)Oc2cccnc2)cc1
inactive: dose: 12.5 mg/kg/injection, schedule: Q01DX009 (ip), vehicle: Klucel (hydroxypropylcellulose) (HPC) 107 % of control | dose: 25.0 mg/kg/injection, schedule: Q01DX009 (ip), vehicle: Klucel (hydroxypropylcellulose) (HPC) 107 % of control | dose: 50.0 mg/kg/injection, schedule: Q01DX009 (ip), vehicle: Klucel (hydroxypropylcellulose) (HPC) 96 % of control

Cc1cc(N)c2ccccc2[n+]1CCCCCCCCCC[n+]1c(C)cc(N)c2ccccc21
inactive: dose: 0.75 mg/kg/injection, schedule: Q01DX009 (ip), vehicle: Klucel (hydroxypropylcellulose) (HPC) 100 % of control | dose: 1.5 mg/kg/injection, schedule: Q01DX009 (ip), vehicle: Klucel (hydroxypropylcellulose) (HPC) 109 % of control | dose: 1.5 mg/kg/injection, schedule: Q04DX003 (ip), vehicle: Klucel (hydroxypropylcellulose) (HPC) 103 % of control | dose: 3.0 mg/kg/injection, schedule: Q01DX009 (ip), vehicle: Klucel (hydroxypropylcellulose) (HPC) 119 % of control and 124 % of control | dose: 3.0 mg/kg/injection, schedule: Q04DX003 (ip), vehicle: Klucel (hydroxypropylcellulose) (HPC) 110 % of control | dose: 6.0 mg/kg/injection, schedule: Q04DX003 (ip), vehicle: Klucel (hydroxypropylcellulose) (HPC) 116 % of control | dose: 12.5 mg/kg/injection, schedule: Q04DX003 (ip), vehicle: Klucel (hydroxypropylcellulose) (HPC) 103 % of control

O=C(CC(O)(C(F)(F)F)C(F)(F)F)c1ccccc1Cl
inactive: [3] 97 % of control | [4] 101 % of control | [10] 101 % of control

O=C(Nc1cccc(Br)c1)c1ccc([N+](=O)[O-])s1
inactive: [11] 89 % of control | [12] 89 % of control | [13] 89 % of control | [14] 87 % of control

CC(C)c1ccccc1O
inactive: [7] 94 % of control | [8] 95 % of control | [9] 90 % of control

O=C1OCCOC1=O
inactive: [5] 90 % of control | dose: 150.0 mg/kg/injection, schedule: Q01DX001 (ip), vehicle: other 95 % of control | [6] 95 % of control

O=CNc1ccccc1Cc1ccccc1
inactive: [1] 101 % of control | [2] 107 % of control

CC(C)(C)N1CCOCC1
inactive: dose: 25.0 mg/kg/injection, schedule: Q01DX009 (ip), vehicle: acetone 91 % of control | dose: 50.0 mg/kg/injection, schedule: Q01DX009 (ip), vehicle: acetone 92 % of control | dose: 100.0 mg/kg/injection, schedule: Q01DX009 (ip), vehicle: acetone 87 % of control

C[C@]12CC[C@H]3[C@@H](CC[C@@H]4C[C@@H](O)CC[C@@]43C=O)[C@]13O[C@@H]3CC2c1ccc(=O)oc1 (some centres not stated)
inactive: dose: 0.25 mg/kg/injection, schedule: Q01DX009 (ip), vehicle: Klucel (hydroxypropylcellulose) (HPC) 100 % of control | dose: 0.5 mg/kg/injection, schedule: Q01DX009 (ip), vehicle: Klucel (hydroxypropylcellulose) (HPC) 100 % of control | dose: 1.0 mg/kg/injection, schedule: Q01DX009 (ip), vehicle: Klucel (hydroxypropylcellulose) (HPC) 100 % of control

C=CCN(N=O)C(N)=O
inactive: dose: 12.5 mg/kg/injection, schedule: Q01DX Z (ip), vehicle: methylcellulose (MC) 106 % of control | dose: 25.0 mg/kg/injection, schedule: Q01DX Z (ip), vehicle: methylcellulose (MC) 108 % of control | dose: 50.0 mg/kg/injection, schedule: Q01DX Z (ip), vehicle: methylcellulose (MC) 117 % of control

O=C(NCCCCc1ccccc1)c1ccc([N+](=O)[O-])s1
inactive: [11] 94 % of control | [12] 87 % of control | [13] 94 % of control | [14] 94 % of control

C=CCNC(=O)/C=C/C(=O)NCC=C
inactive: dose: 25.0 mg/kg/injection, schedule: Q04DX003 (ip), vehicle: saline with Tween-80 97 % of control | [15] 97 % of control | [3] 89 % of control

CCCN(CCC)N=Nc1c(C(=O)OC)n[nH]c1C
inactive: [15] 103 % of control | [3] 104 % of control and 109 % of control | dose: 175.0 mg/kg/injection, schedule: Q01DX009 (ip), vehicle: saline 124 % of control | [4] 104 % of control and 109 % of control | dose: 400.0 mg/kg/injection, schedule: Q01DX009 (ip), vehicle: saline 96 % of control | [10] 102 % of control

CCNC(=O)C1C2CCC(C2)C1C(=O)NCC (configuration not stated)
inactive: dose: 100.0 mg/kg/injection, schedule: Q04DX003 (ip), vehicle: saline 104 % of control | dose: 200.0 mg/kg/injection, schedule: Q04DX003 (ip), vehicle: saline 87 % of control | dose: 400.0 mg/kg/injection, schedule: Q04DX003 (ip), vehicle: saline 96 % of control

CC(C)(C)OC(=O)c1cc([N+](=O)[O-])cc([N+](=O)[O-])c1
inactive: dose: 100.0 mg/kg/injection, schedule: Q04DX002 (ip), vehicle: Klucel (hydroxypropylcellulose) (HPC) 104 % of control | dose: 200.0 mg/kg/injection, schedule: Q04DX002 (ip), vehicle: Klucel (hydroxypropylcellulose) (HPC) 104 % of control | dose: 400.0 mg/kg/injection, schedule: Q04DX002 (ip), vehicle: Klucel (hydroxypropylcellulose) (HPC) 107 % of control

CC(=O)Oc1cc2c(cc1OC(C)=O)C(Br)CCCC2=O (configuration not stated)
inactive: dose: 100.0 mg/kg/injection, schedule: Q01DX009 (ip), vehicle: other 96 % of control | dose: 100.0 mg/kg/injection, schedule: Q04DX003 (ip), vehicle: other 94 % of control | dose: 200.0 mg/kg/injection, schedule: Q01DX009 (ip), vehicle: other 93 % of control | dose: 200.0 mg/kg/injection, schedule: Q04DX003 (ip), vehicle: other 102 % of control | dose: 400.0 mg/kg/injection, schedule: Q01DX009 (ip), vehicle: other 104 % of control | dose: 400.0 mg/kg/injection, schedule: Q04DX003 (ip), vehicle: other 104 % of control

CC(Cl)[N+](=O)[O-] (configuration not stated)
inactive: dose: 100.0 mg/kg/injection, schedule: Q04DX002 (ip), vehicle: saline with Tween-80 94 % of control | dose: 200.0 mg/kg/injection, schedule: Q04DX002 (ip), vehicle: saline with Tween-80 94 % of control | dose: 400.0 mg/kg/injection, schedule: Q04DX002 (ip), vehicle: saline with Tween-80 98 % of control

CN1CCCC2C(c3ccccc3)C(C3=NCCCC3)C(c3ccccc3)CC21 (configuration not stated)
inactive: [1] 88 % of control

NCCOP(=O)(O)O
inactive: dose: 50.0 mg/kg/injection, schedule: Q01DX009 (ip), vehicle: saline 95 % of control | dose: 100.0 mg/kg/injection, schedule: Q01DX009 (ip), vehicle: saline 98 % of control | dose: 200.0 mg/kg/injection, schedule: Q01DX009 (ip), vehicle: saline 106 % of control
